Values quoted from earlier work, collected in patent US20200281958A1, “STABLE FORMULATIONS FOR THE ORAL ADMINISTRATION OF AMPHOTERICIN B AND RELATED METHODS” (priority 2015, published 2020).

What was measured:
[1] = crystalline
[2] = test system: latently infected T cell lines
[3] = test system: monocytic cell lines and primary macrophages/monocytes

## C[C@@H]1[C@H](O)[C@@H](C)/C=C/C=C/C=C/C=C/C=C/C=C/C=C/[C@H](O[C@@H]2O[C@H](C)[C@@H](O)[C@H](N)[C@@H]2O)C[C@@H]2O[C@](O)(C[C@@H](O)C[C@@H](O)[C@H](O)CC[C@@H](O)C[C@@H](O)CC(=O)O[C@H]1C)C[C@H](O)[C@H]2C(=O)O (relative stereo) [amphotericin B, [1R-(1R*,3S*,5R*,6R*,9R*,11R*,15S*,16R*,17R*,18S*,19E,21E,23E,25E, 27E,29E,31 E,33R*,35S*,36R*,37S)]-33-[(3-amino-3,6-dideoxy-β-D-mannopyranosyl)oxy] 1,3,5,6,9,11, 17,37-octahydroxy-15,16,18-trimethyl-13-oxo-14,39-dioxabicyclo-[33.3.1] nonatriaconta-19,21, 23,25,27,29,3 1-heptaene-36-carboxylic acid]
[1]
  solubility in water: insoluble in water
[2]; T cell lines alone
  direct reactivation of latently infected T cell lines: did not directly reactivate
[2]; co-culture with primary macrophages
  HIV-1 reactivation in T cell lines: partial HIV-1 reactivation
[3]
  reactivation of HIV-1 replication: reactivate HIV-1 replication
